One substance from article PMC10976043, “Function and Mechanism of Antiviral Wasp Venom Peptide Protopolybia-MP III and Its Derivatives against HSV-1” (Toxins, 2024) can be followed below.

The test system of one data set is HSV-1 ICP0. In kind it is cell-based, herpes simplex virus type 1. As to conditions: for effect on intracellular HSV-1 ICP0 expression level: HSV-1 MOI 1, 24 h, Western blotting; for inhibition rate on intracellular HSV-1 ICP0 expression level: ICP0, 24 h. The method, then:
(A) Amino acid sequence of Protopolybia-MP III. Basic residues are labeled blue, and acidic residues are labeled red. (B,C) Suppression of intracellular HSV-1 infection by Protopolybia-MP III. Cells were preincubated with Protopolybia-MP III at different concentrations or PBS for 1 h and then infected with HSV-1 at a multiplicity of infection (MOI) of 1. After 24 h, the cells were collected. Intracellular HSV-1 RNA was analyzed by qPCR (B), and intracellular HSV-1 ICP0 protein levels were analyzed by Western blotting (C). (D) Suppression of Protopolybia-MP III on extracellular HSV-1 particles. Cells were treated with Protopolybia-MP III at different concentrations or PBS for 24 h, and then the supernatant was collected and evaluated in a plaque formation assay. (E) Cytotoxicity of Protopolybia-MP III to Vero cells. Cells were treated with Protopolybia-MP III or PBS at different concentrations for 24 h, and then the cytotoxicity was determined by CCK8 assay. * p < 0.05. ** p < 0.01. *** p < 0.001.
(§1) Figure 2 Protopolybia-MP III inhibits HSV-1 replication in human cell lines. (A) Cytotoxicities of Protopolybia-MP III to A549 cells, HCEC, and SK-N-MC. Cells were treated with Protopolybia-MP III at different concentrations or PBS for 24 h, and then cytotoxicities were determined by the CCK8 assay. (B,C) Suppression of intracellular HSV-1 infection by Protopolybia-MP III in A549 cells, HCEC, and SK-N-MC. Cells were preincubated with Protopolybia-MP III at different concentrations or PBS for 1 h and then infected with HSV-1 at an MOI of 1. After 24 h, the cells were collected. Intracellular HSV-1 RNA was analyzed by qPCR (B), and intracellular HSV-1 ICP0 protein expression levels were analyzed by Western blotting (C). (D) Inhibition of Protopolybia-MP III on extracellular HSV-1 particles in A549 cells, HCEC, and SK-N-MC. Cells were treated with Protopolybia-MP III at different concentrations or PBS for 24 h, and then the supernatant was collected and evaluated in a plaque formation assay. * p < 0.05. ** p < 0.01. *** p < 0.001.
Figure 7 Antiviral activity analysis of Protopolybia-MP III mutants. (A) Amino acid sequences of Protopolybia-MP III mutants. Identical amino acids among Protopolybia-MP I, Protopolybia-MP III, and its mutants are marked in blue, and different amino acids are marked in red. (B) Suppression of Protopolybia-MP I, Protopolybia-MP III, and its mutants on intracellular HSV-1 content. Cells were preincubated with 20 μg/mL peptides or PBS for 1 h and then infected with HSV-1 at an MOI of 1. After 24 h, the cells were collected. Intracellular HSV-1 ICP0 protein levels were analyzed by Western blotting. The ratios of HSV-1 ICP0 to GAPDH were calculated by ImageJ software. (C) Inhibition of HSV-1 free virion infectivity by Protopolybia-MP I, Protopolybia-MP III, and its mutants. HSV-1 (MOI = 1) and 5 μg/mL peptides or PBS were coincubated at 37 °C for 1 h, and the mixtures were then used to infect Vero cells. After 24 h, cells were collected, and intracellular HSV-1 RNA was analyzed by qPCR. ns, no significance. * p < 0.05. ** p < 0.01. *** p < 0.001.
HSV-1 was kindly provided by Professor Zhijian Cao of Wuhan University. Cells were infected with HSV-1 at an MOI of 1 for 24 h. Then, cells were collected for qPCR, Western blotting, and immunofluorescence assays, and the extracellular supernatant was used for plaque formation assays.
Cells were collected and lysed in 1% SDS. The cell lysate was heated at 100 °C for 20 min and centrifuged at 12,000 rpm at 4 °C for 15 min, and then the supernatant was collected and assayed with a BCA Protein Quantification Kit (Vazyme). Equal amounts of protein were separated using a PAGE Gel Fast Preparation Kit (10%) (Epizyme Biotech, Wuhan, China) and transferred to nitrocellulose (NC) membranes (Millipore, Wuhan, China). […]
(In general: In western blotting, separated proteins are transferred to a membrane and probed.)

For a further data set, the system named is A549 cells. Description: CCK8 cytotoxicity assay, A549 cells. In kind it is cell-based, human. As to conditions: 40 μg/mL, 24 h. On the procedure: as §1
(§2) Cells were seeded in a 96-well plate (7000–10,000 cells per well) and cultured at 37 °C overnight. Peptides in a series of concentrations were added to the medium, and cells were then incubated at 37 °C for 24 h. […] Finally, the absorbance was measured at 450 nm using a microplate reader (BioTek, Winooski, VT, USA).

Data set [1] relates to human neuroepithelial cells (SK-N-MC). Kind of data set: CCK8 cytotoxicity assay, SK-N-MC. The class given is cell-based. The note with it: 40 μg/mL, 24 h. On the procedure: as §1, §2
(Tetrazolium dyes change colour on reduction, which living cells bring about.)

Read-outs that look alike come from different tables or passages of the source. Ends that are not written are not given here.

“INWLKLGKAVIDAL-NH2 [Protopolybia-MP III]”: the “effect on intracellular HSV-1 ICP0 expression level” value in the data set on HSV-1 ICP0 (A549 cells), in the data set on HSV-1 ICP0 (HCEC) and in the data set on HSV-1 ICP0 (SK-N-MC) was “strongly inhibited” each time. Also, the “inhibition rate on intracellular HSV-1 ICP0 expression level” value in the data set with HSV-1 ICP0 (5 μg/mL) turned out to be 67%; in the data set with HSV-1 ICP0 (10 μg/mL), 74%; in the data set on HSV-1 ICP0 (20 μg/mL) it was 96%. Further, the “cytotoxicity to A549 cells” value in the data set with A549 cells was “almost nontoxic”. In addition, in data set [1], the “cytotoxicity to SK-N-MC” value is listed as “almost nontoxic”.
